Measured values published in patent US8178135B2, “Aqueous solution of conophylline and/or conophyllidine” (Keio University, priority 2006, dated 2012).

Experiments:
[1] = Amounts in lysate, acid extract and fractions after neutralization to pH 6.0, centrifugation and ultrafiltration (HPLC); assay type: physicochemical; details: for amount in Aqueous extract: clarified 0.1 N hydrochloric acid extract; for amount in Lysate: distilled water, 50° C. 30 min, centrifuged supernatant; for amount in Centrifuged supernatant: extract adjusted to pH 6.0, 1,500×g 5 min; for amount in Centrifuged precipitate: extract adjusted to pH 6.0, precipitate dissolved in equal volume of 50% ethanol; for amount in UF filtrate: pH 6.0, passed ultrafiltration membrane; for amount in UF filtrate / amount in UF debris: cut-off 50,000; for amount in UF debris: pH 6.0, retained on ultrafiltration membrane
Method: Conophylline and conophyllidine were analyzed by reversed phase HPLC in a high pressure gradient mode using a YMC-Pack Pro C18 RS column (4.6 mm×250 mm; manufactured by YMC Co., Ltd.). The mobile phase consisted of 1% by volume acetic acid as solvent A and acetonitrile as solvent B. The gradient program was set to start with 10% B at a flow rate of 1 ml/min, and the portion of B was increased linearly to 55% over 25 min. The column temperature was 40° C. and UV absorption was monitored at the wavelength of 335 nm. The reference solutions of conophylline and conophyllidine were prepared immediately before measurement and their concentrations were calculated from the absorbance at 335 nm of the solutions prepared.
200 ml of 0.1 N hydrochloric acid was added to 4 g of pulverized product of the dried leaves obtained by the same method as in Example 2, which was then extracted at 50° C. for 30 min. After the debris was removed by paper filtration, the extract was ultrafiltrated with pencil-type module SLP-0053 manufactured by Asahi Kasei Corporation (molecular weight cut-off 10,000) and 165 ml of filtrate was recovered. The pH of the filtrate was adjusted by gradually adding sodium carbonate aqueous solution and the precipitate formed was recovered by centrifugation. The precipitate was then vacuum-evaporated to yield 70 mg of dried product. This dried product contained 9.8 μg of conophylline and 13.3 μg of conophyllidine per mg
The extract was prepared and clarified by removing debris by paper filtration in the same method as in Example 5. Then 100 ml of the clarified extract was adjusted to pH 6.0 with sodium hydroxide aqueous solution. This solution was centrifuged (1,500×g, 5 min) to separate into a supernatant (centrifuged supernatant) and precipitate (centrifuged precipitate). Next, the precipitate was dissolved in an equal volume of 50% ethanol, and the amounts of the active ingredients (conophylline and conophyllidine) in the clarified extract, the centrifuged supernatant, and the centrifuged precipitate were measured by HPLC. Further, the amounts of the active ingredient in the supernatant (lysate) obtained by adding 200 ml of distilled water to 4 g of the pulverized product of the dried leaves of Tabernaemontana divaricata and heating at 50° C. for 30 min, followed by centrifugation at 1,500×g for 5 min were also measured by HPLC.
Further, a sodium hydroxide aqueous solution was added to 1 ml of the above-described clarified extract to adjust pH to 6.0. This extract was treated with an ultrafiltration membrane USY-5 (molecular weight cut-off: 50,000), manufactured by Advantech Co., Ltd. and the filtrate which had passed through the membrane was recovered (UF filtrate). At the same time, the remaining component on the membrane was dissolved and recovered using 1 ml of 50% ethanol (UF debris), and the amounts of the active ingredients in the UF filtrate and UF debris were measured by HPLC (Table 5). As a result, no amount of conophylline or conophyllidine was not detected in the filtrate at all; almost all was present in the fraction which had not permeated through the ultrafiltration membrane.

[2] = Storing stability of water-soluble composition extracted with citric acid; assay type: physicochemical; details: dried composition
Method: 0.1 M citric acid was added to the pulverized product of the dried leaves obtained by the same method as in Example 2, and stirred at 60° C. After insoluble matter was filtered off, the solution was neutralized to pH 6.0 with 0.1 N sodium hydroxide, dispensed in 1 ml aliquots into test tubes, and concentrated to dryness by centrifugation.
First, 1 ml of 50% ethanol was added to one of the test tubes to dissolve solid content. The solution was filtered through a 0.2 μm membrane filter, and then conophylline and conophyllidine were analyzed by HPLC.
Next, the remaining test tubes were divided into five groups, each of which being stored at −30° C. (shielded from light), 4° C. (shielded from light), 4° C. (not shielded from light), 30° C. (shielded from light), and 50° C. (shielded from light). After a lapse of a certain period of time, the composition was dissolved by addition of 50% ethanol, filtered, and analyzed by HPLC.

[3] = Concentration dissolved after neutralization with pectin added (partially purified by fractionation); assay type: physicochemical; details: for concentration in solution: Control: filled up only with distilled water, not neutralized
Method: 10 mg of the dried product obtained in Example 5 was dissolved in 5 ml of 0.1 N hydrochloric acid. This solution was dispensed in 0.5 ml aliquots into test tubes. Then, 10 μl or 100 μl of a 0.25% aqueous solution of pectin (Genue pectin type YM-150-LJ) was added and filled up to a total volume of 2 ml with distilled water. Meanwhile, only distilled water was added to some of the test tubes in a total volume of 2 ml.
Subsequently, the solution, after being adjusted to pH 6.0 with sodium carbonate aqueous solution, was filled up to a total volume of 2.5 ml and was centrifuged at 5,000×g for 10 min. The supernatant was recovered and the concentrations of conophylline and conophyllidine were measured. Meanwhile, the concentrations of conophylline and conophyllidine in the solutions, which was made by filled up to a total volume of 2.5 ml only with distilled water, were also measured as the control.

[4] = Solubility in distilled water or 1% SDS; assay type: physicochemical
Method: 10 mg of weighed Crude extract I obtained in Example 1 was added to 1 ml of distilled water or 1 ml of 1% sodium dodecyl sulfate (SDS) aqueous solution and was stirred vigorously. The solution was centrifuged at 5,000×g for 2 min and the concentrations of conophylline and conophyllidine in the supernatant were measured.

pancreatic β cells = details: cited from earlier work
[5] = Crude extract II absorption test in GK rats; assay type: in vivo, rat; details: Crude extract II 4.3 or 13 mg/kg, 1.5-24 h
Method: Sixteen 10-week old GK rats were divided into four groups (n=4 per group). Two groups (the fasted groups) were fasted for 16 hours, and the remaining two groups (the fed groups) were allowed ad libitum access to chow and water. The fed groups received Crude extract II (containing Tween 80) at 4.3 mg/kg or 13 mg/kg. Blood was taken at 1.5, 3, 6, 12, and 24 hours post administration and plasma conophylline concentration was measured. Likewise, the fasted groups also received Crude extract II and plasma conophylline concentration was measured.

[6] = tested on: model animals of neonatal diabetes; details: intraperitoneally administered; cited from earlier work

Row | SMILES | amount in Aqueous extract [1] | amount in Lysate [1] | amount in Centrifuged supernatant [1] | amount in Centrifuged precipitate [1] | amount in UF filtrate [1] | amount in UF debris [1] | storing stability ([2]; 4° C., not shielded from light) | storing stability ([2]; −30, 4, 30, 50° C., shielded from light) | concentration in solution [3] | concentration in supernatant after neutralization ([3]; pH 6.0, Pectin 10 μg/ml) | concentration in supernatant after neutralization ([3]; pH 6.0, Pectin 100 μg/ml) | concentration in supernatant after neutralization ([3]; pH 6.0, pectin 0 μg/ml) | concentration in supernatant ([4]; 10 mg Crude extract I in 1 ml 1% SDS) | concentration in supernatant ([4]; 10 mg Crude extract I in 1 ml Distilled water) | regeneration of pancreatic β cells (pancreatic β cells) | blood (plasma) conophylline concentration, fasted vs fed groups [5] | blood glucose levels [6]
1 | CC[C@@]12C=CCN3CC[C@]4(C(=C(C(=O)OC)C1)Nc1cc5c(cc14)[C@H]1[C@@H](O5)[C@H](O)[C@]4(CC)CC(C(=O)OC)=C5Nc6c(cc(O)c(OC)c6OC)[C@@]56CCN1[C@H]46)[C@H]32 (stereo in doubt) [Conophyllidine, conophyllidine] | 2.01 µg/mL | 0.02 µg/mL | 1.41 µg/mL | 0.30 µg/mL | 0.00 µg/mL | 2.19 µg/mL | gradually decreased (degraded) | very stable | 4600 ng/mL | 2200 ng/mL | 3000 ng/mL | 1500 ng/mL | 2970 ng/mL | 680 ng/mL | activate regeneration of pancreatic β cells | – | –
2 | CC[C@@]12CC(C(=O)OC)=C3Nc4cc5c(cc4[C@@]34CCN(C[C@H]3O[C@H]31)[C@@H]24)[C@@H]1[C@H](O5)[C@@H](O)[C@@]2(CC)CC(C(=O)OC)=C3Nc4c(cc(O)c(OC)c4OC)[C@@]34CCN1[C@@H]24 [Conophylline, conophylline] | 2.62 µg/mL | 0.04 µg/mL | 2.22 µg/mL | 0.48 µg/mL | 0.00 µg/mL | 2.39 µg/mL | – | – | 3700 ng/mL | 2100 ng/mL | 2600 ng/mL | 1500 ng/mL | – | – | activate regeneration of pancreatic β cells | slightly higher in the fasted groups, but no significant difference | significantly suppressing increased blood glucose levels
